Test results taken from patent US8383619B2, “Pharmaceutical compounds” (Astex Therapeutics Limited, priority 2008, dated 2013).

Tests used:
[1] = Liver homogenate stability; format: in vitro ADME; details: 1 μM, 37° C., 120 mins
Excerpt: (§1) The breakdown of a prodrug in vivo could occur in one or more of several different compartments including for example, but not limited to blood/plasma, liver, stomach, target tissue (e.g. tumour). The preferred location for optimum formation of the parent drug will depend on the disposition in vivo of the pro-drug and parent and an understanding of the optimum concentrations of each required in the circulation to maximise exposure to the active moiety in the target tissue. The potential for pro-drug molecules to deliver the active parent drug may be assessed in vitro by measuring the breakdown of a pro-drug in the presence of relevant body fluids. For the purpose of gaining a preliminary understanding of the stability of compounds of the invention to enzymatic hydrolysis in two such bodily compartments, compound turnover has been studied following incubation in whole blood and liver homogenate from mice and humans. The data obtained from these studies provide a preliminary understanding of which of the prodrugs are better able to deliver parent compound (i.e. are more rapidly broken down to parent compound) in these compartments. Further studies could also determine stability in other compartments (e.g. in the target tumours by measuring stability in tumour lysates).
Mouse livers were obtained from 20 male mice, strain: Balb/c from stock animals. Human liver tissue was obtained from 3 individuals sourced from a UK human tissue bank. The livers were stored frozen. The livers were defrosted and then homogenised to form a homogenate of approximately 30% (w/v) in phosphate buffer, 100 mM, pH 7.4 (referred to as ‘buffer’). Homogenates were kept on ice until use.
(§2) Each incubation consisted of a volume of 1 mL. Test compound dosing solutions were then spiked into each homogenate at a final compound concentration of 1 μM. Incubations were performed in the atmosphere in a shaking water bath at 37° C.
(§3) An aliquot of incubation samples was removed into an equal volume of ice-cold acetonitrile at various time points. Samples (whole blood/homogenate+acetonitrile) were centrifuged and aliquots of the supernatant were analysed by HPLC-MS/MS.
(§4) The compound X (2,4-dihydroxy-5-isopropyl-phenyl)-[5-(4-methyl-piperazin-1-ylmethyl)-1,3-dihydro-isoindol-2-yl]-methanone) and the compounds of Examples 1 to 24 were incubated in both whole blood and liver homogenate by Quotient Bioresearch (Rushden, UK). The percentage remaining of parent compound following incubation in whole blood/liver homogenate from human and mouse are set out in the table below.

Whole blood stability = format: in vitro ADME; details: 1 μM, 37° C.
Excerpt: as §1
For these studies, human whole blood was collected from 3 male healthy volunteers in lithium heparin tubes. The blood was pooled and stored at room temperature for a maximum of 2 hours prior to initiation of incubations. Mouse blood was collected from 70 male mice, strain: Balb/c into lithium heparin tubes and pooled.
as §2, §3, §4

SMILES	Percentage remaining Human Liver [1]	Percentage remaining Mouse Liver [1]	Percentage remaining Human blood (Whole blood stability; 120 mins)	Percentage remaining Mouse blood (Whole blood stability; 120 mins)	Percentage remaining Mouse blood (Whole blood stability; 60 mins (footnote *))
CCN(CC)C(=O)Oc1cc(OC(=O)N(CC)CC)c(C(C)C)cc1C(=O)N1Cc2ccc(CN3CCN(C)CC3)cc2C1 [Example 10]	56%	60%	108%	93%	
CC(C)c1cc(C(=O)N2Cc3ccc(CN4CCN(C)CC4)cc3C2)c(OC(=O)N2CCCC2)cc1OC(=O)N1CCCC1 [Example 12, 2-[2,4-bis-(pyrrolidin-1-ylcarbonyloxy)-5-isopropyl-benzoyl]-5-(4-methyl-piperazin-1-ylmethyl)-1,3-dihydro-isoindole]	43%	1%	110%	37%	
CC(C)c1cc(C(=O)N2Cc3ccc(CN4CCN(C)CC4)cc3C2)c(OC(=O)N2CCOCC2)cc1OC(=O)N1CCOCC1 [Example 13, 2-[2,4-bis-(morpholin-4-ylcarbonyloxy)-5-isopropyl-benzoyl]-5-(4-methyl-piperazin-1-ylmethyl)-1,3-dihydro-isoindole]	0%	0%	76%	0%	
CCN(CC)C(=O)Oc1cc(O)c(C(C)C)cc1C(=O)N1Cc2ccc(CN3CCN(C)CC3)cc2C1 [Example 14, Diethyl-carbamic acid 5-hydroxy-4-isopropyl-2-[5-(4-methyl-piperazin-1-ylmethyl)-1,3-dihydro-isoindole-2-carbonyl]-phenyl ester]	88%	89%	94%	94%	
CCN(CC)C(=O)Oc1cc(O)c(C(=O)N2Cc3ccc(CN4CCN(C)CC4)cc3C2)cc1C(C)C [Example 15, Diethyl-carbamic acid 5-hydroxy-2-isopropyl-4-[5-(4-methyl-piperazin-1-ylmethyl)-1,3-dihydro-isoindole-2-carbonyl]-phenyl ester]	35%	26%	123%	58%	
CC(C)c1cc(C(=O)N2Cc3ccc(CN4CCN(C)CC4)cc3C2)c(OC(=O)N(C)C)cc1O [Example 16, dimethyl-carbamic acid 5-hydroxy-4-isopropyl-2-[5-(4-methyl-piperazin-1-ylmethyl)-1,3-dihydro-isoindole-2-carbonyl]-phenyl ester]	73%	82%	104%	91%	
CC(C)c1cc(C(=O)N2Cc3ccc(CN4CCN(C)CC4)cc3C2)c(OC(=O)N2CCCC2)cc1O [Example 18, 2-[2-(pyrrolidin-1-ylcarbonyloxy)-4-hydroxy-5-isopropyl-benzoyl]-5-(4-methyl-piperazin-1-ylmethyl)-1,3-dihydro-isoindole]	65%	80%	110%		103% *
CC(C)c1cc(C(=O)N2Cc3ccc(CN4CCN(C)CC4)cc3C2)c(O)cc1OC(=O)N1CCCC1 [Example 19, 2-[4-(pyrrolidin-1-ylcarbonyloxy)-2-hydroxy-5-isopropyl-benzoyl]-5-(4-methyl-piperazin-1-ylmethyl)-1,3-dihydro-isoindole]	0%	0%	102%		79% *
CC(C)c1cc(C(=O)N2Cc3ccc(CN4CCN(C)CC4)cc3C2)c(OC(=O)N2CCOCC2)cc1O [Example 20, 2-[2-(morpholin-4-ylcarbonyloxy)-4-hydroxy-5-isopropyl-benzoyl]-5-(4-methyl-piperazin-1-ylmethyl)-1,3-dihydro-isoindole]	23%	45%	97%	16%	

Further lines, with some results ahead:

Percentage remaining Human Liver [1]	Percentage remaining Mouse Liver [1]	Percentage remaining Human blood (Whole blood stability; 120 mins)	Percentage remaining Mouse blood (Whole blood stability; 120 mins)	SMILES	Percentage remaining Mouse blood (Whole blood stability; 60 mins (footnote *))
94%	112%	100%	102%	CC(C)c1cc(C(=O)N2Cc3ccc(CN4CCN(C)CC4)cc3C2)c(O)cc1O [Compound X, (2,4-dihydroxy-5-isopropyl-phenyl)-[5-(4-methyl-piperazin-1-ylmethyl)-1,3-dihydro-isoindol-2-yl]-methanone]	
99%	104%	100%	104%	COc1cc(O)c(C(C)C)cc1C(=O)N1Cc2ccc(CN3CCN(C)CC3)cc2C1 [Example 1, (4-Hydroxy-5-isopropyl-2-methoxy-phenyl)-[5-(4-methyl-piperazin-1-ylmethyl)-1,3-dihydro-isoindol-2-yl]-methanone]	
85%	100%	122%	129%	COc1cc(O)c(C(=O)N2Cc3ccc(CN4CCN(C)CC4)cc3C2)cc1C(C)C [Example 2, (2-Hydroxy-5-isopropyl-4-methoxy-phenyl)-[5-(4-methyl-piperazin-1-ylmethyl)-1,3-dihydro-isoindol-2-yl]-methanone]	
79%	93%	107%	100%	COc1cc(OC)c(C(C)C)cc1C(=O)N1Cc2ccc(CN3CCN(C)CC3)cc2C1 [Example 3, (5-Isopropyl-2,4-dimethoxy-phenyl)-[5-(4-methyl-piperazin-1-ylmethyl)-1,3-dihydro-isoindol-2-yl]-methanone]	
92%	63%	109%	106%	C=CCOc1cc(O)c(C(C)C)cc1C(=O)N1Cc2ccc(CN3CCN(C)CC3)cc2C1 [Example 4, (2-Allyloxy-4-hydroxy-5-isopropyl-phenyl)-[5-(4-methyl-piperazin-1-ylmethyl)-1,3-dihydro-isoindol-2-yl]-methanone]	
81%	86%	115%	124%	C=CCOc1cc(O)c(C(=O)N2Cc3ccc(CN4CCN(C)CC4)cc3C2)cc1C(C)C [Example 5, (4-Allyloxy-2-hydroxy-5-isopropyl-phenyl)-[5-(4-methyl-piperazin-1-ylmethyl)-1,3-dihydro-isoindol-2-yl]-methanone]	
94%	75%	105%	125%	C=CCOc1cc(OCC=C)c(C(C)C)cc1C(=O)N1Cc2ccc(CN3CCN(C)CC3)cc2C1 [Example 6, (2,4-Bis-allyloxy-5-isopropyl-phenyl)-[5-(4-methyl-piperazin-1-ylmethyl)-1,3-dihydro-isoindol-2-yl]-methanone]	
92%	115%	109%		COCOc1cc(O)c(C(C)C)cc1C(=O)N1Cc2ccc(CN3CCN(C)CC3)cc2C1 [Example 7, [4-Hydroxy-5-isopropyl-2-(methoxymethyloxy)-phenyl]-[5-(4-methyl-piperazin-1-ylmethyl)-1,3-dihydro-isoindol-2-yl]-methanone]	104% *
102%	79%	114%	104%	COCOc1cc(O)c(C(=O)N2Cc3ccc(CN4CCN(C)CC4)cc3C2)cc1C(C)C [Example 8, [2-Hydroxy-5-isopropyl-4-(methoxymethyloxy)-phenyl]-[5-(4-methyl-piperazin-1-ylmethyl)-1,3-dihydro-isoindol-2-yl]-methanone]	
98%	82%	111%		COCOc1cc(OCOC)c(C(C)C)cc1C(=O)N1Cc2ccc(CN3CCN(C)CC3)cc2C1 [Example 9, [5-Isopropyl-2,4-bis-(methoxymethyloxy)-phenyl]-[5-(4-methyl-piperazin-1-ylmethyl)-1,3-dihydro-isoindol-2-yl]-methanone]	105% *
